Data taken from ChEMBL document CHEMBL1122585, “Synthesis of a novel class of heteroaromatic amino acids and their use in the preparation of analogues of luteinizing hormone-releasing hormone” (J Med Chem, 1984).

What was measured:
Rattus norvegicus = organism: Rattus norvegicus; assay: Antifertility effect in adult female rats by estrus suppression assay; format: functional
[1] = Acid dissociation constant was determined; format: ADME

For `CC(C)C[C@H](NC(=O)[C@@H](Cc1nc2c([nH]1)CCCC2)NC(=O)[C@H](Cc1ccc(O)cc1)NC(=O)[C@H](CO)NC(=O)[C@H](Cc1c[nH]c2ccccc12)NC(=O)[C@H](Cc1c[nH]cn1)NC(=O)[C@@H]1CCC(=O)N1)C(=O)N[C@@H](CCCN=C(N)N)C(=O)N1CCC[C@H]1C(=O)NCC(N)=O`, the Potency (Rattus norvegicus) was 0.6.
In the case of `CCNC(=O)[C@@H]1CCCN1C(=O)[C@H](CCCN=C(N)N)NC(=O)[C@H](CC(C)C)NC(=O)[C@@H](Cc1nc2c([nH]1)CCCC2)NC(=O)[C@H](Cc1ccc(O)cc1)NC(=O)[C@H](CO)NC(=O)[C@H](Cc1c[nH]c2ccccc12)NC(=O)[C@H](Cc1c[nH]cn1)NC(=O)[C@@H]1CCC(=O)N1`, the Potency (Rattus norvegicus) is reported as 1.4.
`CC(C)C[C@H](NC(=O)[C@@H](Cc1nc2ccccc2s1)NC(=O)[C@H](Cc1ccc(O)cc1)NC(=O)[C@H](CO)NC(=O)[C@H](Cc1c[nH]c2ccccc12)NC(=O)[C@H](Cc1c[nH]cn1)NC(=O)[C@@H]1CCC(=O)N1)C(=O)N[C@@H](CCCN=C(N)N)C(=O)N1CCC[C@H]1C(=O)NCC(N)=O` showed a Potency (Rattus norvegicus) of 1.
With `CC(C)C[C@H](NC(=O)[C@@H](Cc1nc2ccccc2o1)NC(=O)[C@H](Cc1ccc(O)cc1)NC(=O)[C@H](CO)NC(=O)[C@H](Cc1c[nH]c2ccccc12)NC(=O)[C@H](Cc1c[nH]cn1)NC(=O)[C@@H]1CCC(=O)N1)C(=O)N[C@@H](CCCN=C(N)N)C(=O)N1CCC[C@H]1C(=O)NCC(N)=O` the Potency (Rattus norvegicus) was 1.2.
`CC(C)C[C@H](NC(=O)[C@@H](Cc1nc2ccccc2[nH]1)NC(=O)[C@H](Cc1ccc(O)cc1)NC(=O)[C@H](CO)NC(=O)[C@H](Cc1c[nH]c2ccccc12)NC(=O)[C@H](Cc1c[nH]cn1)NC(=O)[C@@H]1CCC(=O)N1)C(=O)N[C@@H](CCCN=C(N)N)C(=O)N1CCC[C@H]1C(=O)NCC(N)=O` gave a Potency (Rattus norvegicus) of 0.3.
For `CC(C)C[C@H](NC(=O)[C@@H](Cc1nc2cc(Cl)c(Cl)cc2[nH]1)NC(=O)[C@H](Cc1ccc(O)cc1)NC(=O)[C@H](CO)NC(=O)[C@H](Cc1c[nH]c2ccccc12)NC(=O)[C@H](Cc1c[nH]cn1)NC(=O)[C@@H]1CCC(=O)N1)C(=O)N[C@@H](CCCN=C(N)N)C(=O)N1CCC[C@H]1C(=O)NCC(N)=O`, the Potency (Rattus norvegicus) was 0.9.
For `Cc1cc2nc(C[C@@H](NC(=O)[C@H](Cc3ccc(O)cc3)NC(=O)[C@H](CO)NC(=O)[C@H](Cc3c[nH]c4ccccc34)NC(=O)[C@H](Cc3c[nH]cn3)NC(=O)[C@@H]3CCC(=O)N3)C(=O)N[C@@H](CC(C)C)C(=O)N[C@@H](CCCN=C(N)N)C(=O)N3CCC[C@H]3C(=O)NCC(N)=O)[nH]c2cc1C`, the Potency (Rattus norvegicus) was 1.6.
With `NC(Cc1nc2cc(Cl)c(Cl)cc2[nH]1)C(=O)O` (stereo not drawn) the pKa [1] was 3.4.
`CCNC(=O)[C@@H]1CCCN1C(=O)[C@H](CCCN=C(N)N)NC(=O)[C@H](CC(C)C)NC(=O)[C@@H](Cc1nc2ccccc2[nH]1)NC(=O)[C@H](Cc1ccc(O)cc1)NC(=O)[C@H](CO)NC(=O)[C@H](Cc1c[nH]c2ccccc12)NC(=O)[C@H](Cc1c[nH]cn1)NC(=O)[C@@H]1CCC(=O)N1` showed a Potency (Rattus norvegicus) of 1.
For `Cc1cc2nc(CC(N)C(=O)O)[nH]c2cc1C` (stereo not drawn), the pKa [1] was 5.4.
`NC(Cc1nc2ccccc2[nH]1)C(=O)O` (stereo not drawn) showed a pKa [1] of 4.7.
In the case of `NC(Cc1nc2c([nH]1)CCCC2)C(=O)O` (stereo not drawn), the pKa [1] is reported as 7.5.
`CCNC(=O)[C@@H]1CCCN1C(=O)[C@H](CCCN=C(N)N)NC(=O)[C@H](CC(C)C)NC(=O)[C@@H](Cc1nc2c(ccc3ccccc32)[nH]1)NC(=O)[C@H](Cc1ccc(O)cc1)NC(=O)[C@H](CO)NC(=O)[C@H](Cc1c[nH]c2ccccc12)NC(=O)[C@H](Cc1c[nH]cn1)NC(=O)[C@@H]1CCC(=O)N1` showed a Potency (Rattus norvegicus) of 0.8.
